Measurements from patent US20250360160A1, “NEW MEDICAL USE OF TAFOXIPARIN” (DILAFOR AB, priority 2022, published 2025).

Test system: term pregnant, nulliparous women with an unripe cervix
Experiment: Clinical phase II trial PPL17 (Parts A and B), subcutaneous tafoxiparin vs placebo
Format: in vivo, human
Settings: for Labor induced with PGE-1, percent of subjects: placebo 10.2%; for Fetal distress as indication for operative delivery (ODFD), percent of patients: placebo 22.7%; for Percent of patients with operative delivery / proportion of women needing instrumental delivery: placebo 45.5%; for Labor induced with oxytocin, percent of subjects / proportion of women reaching spontaneous onset of labor with uncomplicated delivery: placebo 54.5%; for Labor induced with amniotomy, percent of subjects: placebo 56.8%; for Labor induction with Balloon catheter, percent of subjects: placebo 58.0%; for Labor induced, percent of subjects: placebo 70.5%; for number of women needing instrumental delivery: spontaneous onset of labor; for proportion reaching partus by vaginal delivery with no need for instrumental delivery nor caesarian section: placebo 48%; for proportion reaching partus by vaginal delivery with no need for instrumental delivery nor caesarian section / proportion of women needing instrumental delivery or caesarian section to reach partus: FIG. 5; for proportion of women needing instrumental delivery or caesarian section to reach partus: placebo 52%; for proportion of women needing instrumental delivery: vaginal mode of partus, FIG. 4; for number of subjects (women) that reach spontaneous onset of labor / percent of subjects (women) that reach spontaneous onset of labor: n=37
Method: A clinical phase II trial is performed as a randomized, double-blind, placebo-controlled, parallel-group proof of concept study (Part A) with a conditional dose finding follow up study (Part B) to evaluate the efficacy, safety, tolerability and dose response of subcutaneously administered tafoxiparin as a supplement to induction therapy in term pregnant, nulliparous women with an unripe cervix. The study is performed in Sweden and Finland (PPL17), and an EMA (European Medicines Agency) description of the study can be found on the EU Clinical Trials Register web (www.clinicaltrialsregister.eu/ctr-search/search?query=PPL17).
A total of 170 term pregnant women are randomized to receive either 300 mg of tafoxiparin, or corresponding placebo (vehicle), administered subcutaneously every 24±3 hours and up to a total of 7 doses, or until partus (Part A).
In the dose finding follow up study (Part B), a total of 164 term pregnant women are randomized to receive either 75 or 150 mg of tafoxiparin administered subcutaneously every 24±3 hours […] and up to a total of 7 doses, or until partus.
To assess the efficacy of tafoxiparin on cervical ripening/cervical ripening rate, during and up to the first seven days of treatment, measured by Bishop score. All women must be examined to check the cervical state before enrollment.
Time from start of treatment to increase in Bishop score of ≥2 points or spontaneous onset of labor, whichever comes first. Time from start of treatment to increase in Bishop score of ≥3 points or spontaneous onset of labor, whichever comes first. Time from start of treatment to increase in Bishop score of ≥4 points or spontaneous onset of labor, whichever comes first.
Cervical ripening as measured by change from baseline to end of treatment in Bishop Score. Time from onset of labor to partus, where onset of labor is defined as last record of 4 cm cervical dilatation visualized in the partogram and progress of labor, or last record of 4 cm of cervical dilatation in combination with amniotomy and intravenous administration oxytocin.
Proportion of women with spontaneous onset of labor (Response group I).
Tafoxiparin/Placebo is supplied by Dilafor AB to the site as kits designed to constitute 300 mg of tafoxiparin or placebo for daily administration. Apart from the active substance, each ml of study drug will constitute 0.015 M phosphate buffer. The study medication kit for each patient will contain 8 doses consisting of 2 vials containing a minimum extractable volume of 1.6 ml of 150 mg/ml of tafoxiparin or placebo. One dose is a reserve dose in case a dose is rendered unusable. The investigational product should be administered subcutaneously every 24±3hours by the site staff for up to 7 doses, or until partus. At each dosing time 1.0 ml of the drug will be extracted from each of the 2 vials and injected as separate s.c. injections in the abdominal or hip region.
Tafoxiparin/Placebo is supplied by Dilafor AB to the site as kits designed to constitute 75 or 150 mg of tafoxiparin for daily administration. Apart from the active substance, each ml of study drug will constitute 0.015 M phosphate buffer. The study medication kit for each patient will contain 8 doses consisting of 2 vials for each injection occasion containing a minimum extractable volume of 1.6 ml of 150 mg/ml of tafoxiparin or placebo. For subjects receiving 75 mg of tafoxiparin, one vial will contain active substance and one containing placebo. For subjects receiving 150 mg of tafoxiparin, both vials will contain active substance. One dose is a reserve dose in case a dose is rendered unusable. The investigational product should be administered subcutaneously every 24±3 hours by the site staff for up to 7 doses, or until partus. At each dosing time, 0.5 ml of the drug will be extracted from each of the 2 vials and injected as separate s.c. injections in the abdominal or hip region. […]

[1] = 150 mg, n = 85, listed as tafoxiparin
[2] = 150 mg, women with spontaneous onset of labor, of 36
[3] = 300 mg, n = 91, listed as tafoxiparin
[4] = 300 mg, women with spontaneous onset of labor, of 37

## tafoxiparin
[1]
  Labor induced with PGE-1, percent of subjects: 8.2%
  Labor induced with oxytocin, percent of subjects: 44.7%
  Labor induced with amniotomy, percent of subjects: 45.9%
  Labor induction with Balloon catheter, percent of subjects: 43.5%
  Labor induced, percent of subjects: 56.5%
150 mg, n = 85
  Fetal distress as indication for operative delivery (ODFD), percent of patients: 23.5%
  Percent of patients with operative delivery: 48.2%
  Labor induced with oxytocin, percent of subjects: (44.7%)
  Labor induced with amniotomy, percent of subjects: (45.9%)
  Labor induction with Balloon catheter, percent of subjects: (43.5%)
  Labor induced, percent of subjects: (56.5%)
150 mg, of 32 women
  number of women reaching spontaneous onset of labor with uncomplicated delivery: 23 women
  proportion of women reaching spontaneous onset of labor with uncomplicated delivery: 71.9%
  number of women needing instrumental delivery: 9 women
150 mg, of 36 women
  number of women needing instrumental delivery or caesarian section to reach partus: 13 women
  number reaching partus by vaginal delivery with no need for instrumental delivery nor caesarian section: 23 women
150 mg, of 85 women
  number of women achieving spontaneous onset of labor: 36 women
[2]
  proportion reaching partus by vaginal delivery with no need for instrumental delivery nor caesarian section: 63.9%
  proportion of women needing instrumental delivery or caesarian section to reach partus: 36.1%
150 mg, women with spontaneous onset of labor, of 32, p 0.422
  proportion of women needing instrumental delivery: 28.1%
300 mg and 150 mg vs 75 mg and placebo, FIG. 3
  time point of spontaneous onset of labor (change of Bishop score): achieved spontaneous onset of labor at an earlier time point
300 mg daily s.c., of 90 women, p=0.089, placebo 28.7%, FIG. 1
  proportion of women achieving spontaneous onset of labor: 41.1%
300 mg, Study day 1
  number of subjects (women) that reach spontaneous onset of labor: 2
  percent of subjects (women) that reach spontaneous onset of labor: (5%)
300 mg, Study day 2
  number of subjects (women) that reach spontaneous onset of labor: 11
  percent of subjects (women) that reach spontaneous onset of labor: (30%)
300 mg, Study day 3
  number of subjects (women) that reach spontaneous onset of labor: 18
  percent of subjects (women) that reach spontaneous onset of labor: (49%)
300 mg, Study day 4
  number of subjects (women) that reach spontaneous onset of labor: 23
  percent of subjects (women) that reach spontaneous onset of labor: (62%)
300 mg, Study day 5
  number of subjects (women) that reach spontaneous onset of labor: 30
  percent of subjects (women) that reach spontaneous onset of labor: (81%)
300 mg, Study day 6
  number of subjects (women) that reach spontaneous onset of labor: 34
  percent of subjects (women) that reach spontaneous onset of labor: (92%)
300 mg, Study day 7
  number of subjects (women) that reach spontaneous onset of labor: 37
  percent of subjects (women) that reach spontaneous onset of labor: (100%)
300 mg, n = 91
  Fetal distress as indication for operative delivery (ODFD), number of patients: 11
  Labor induced with PGE-1, number of subjects: 5
  Labor induced with amniotomy, number of subjects: 50
  Labor induced with oxytocin, number of subjects: 45
  Labor induction with Balloon catheter, number of subjects: 42
  Labor induced with PGE-1, percent of subjects: (5.5%)
  Fetal distress as indication for operative delivery (ODFD), percent of patients: 12.1%
  Percent of patients with operative delivery: 35.2%
  Labor induced with oxytocin, percent of subjects: (49.5%)
  Labor induced with amniotomy, percent of subjects: (54.9%)
  Labor induction with Balloon catheter, percent of subjects: (46.2%)
  Labor induced, percent of subjects: (58.2%)
300 mg, n = 91, onset of labor with intervention
  Labor induced, number of subjects: 53
[3]
  Labor induced with PGE-1, percent of subjects: 5.5%
  Labor induced with oxytocin, percent of subjects: 49.5%
  Labor induced with amniotomy, percent of subjects: 54.9%
  Labor induction with Balloon catheter, percent of subjects: 46.2%
  Labor induced, percent of subjects: 58.2%
300 mg, of 33 women
  number of women reaching spontaneous onset of labor with uncomplicated delivery: 27 women
  proportion of women reaching spontaneous onset of labor with uncomplicated delivery: 81.8%
  number of women needing instrumental delivery: 6 women
300 mg, of 37 women
  number of women needing instrumental delivery or caesarian section to reach partus: 10 women
  number reaching partus by vaginal delivery with no need for instrumental delivery nor caesarian section: 27 women
300 mg, of 90 women
  number of women achieving spontaneous onset of labor: 37 women
[4]
  proportion reaching partus by vaginal delivery with no need for instrumental delivery nor caesarian section: 73%
  proportion of women needing instrumental delivery or caesarian section to reach partus: 27%
300 mg, women with spontaneous onset of labor, of 33, p=0.048
  proportion of women needing instrumental delivery: 18.2%
All three doses 300 mg, 150 mg and 75 mg
  achieving spontaneous onset of labor (conclusion): effective for achieving spontaneous onset of labor
All three doses 300 mg, 150 mg and 75 mg, compared to placebo
  mode of partus (conclusion): effective for a person to reach partus by vaginal delivery and with less need for instrumental delivery or caesarian section
All three doses (300 mg, 150 mg and 75 mg), women with spontaneous onset of labor, vs placebo
  need for instrumental delivery (conclusion): effective in reducing the need for instrumental delivery
All three doses, compared to placebo
  need for intervention to achieve onset of labor (conclusion): reduced the need for intervention in order to achieve onset of labor
Doses 300 mg and 150 mg, FIG. 3
  effect on cervical ripening: beneficial effect on cervical ripening
First 7 days of treatment, all three doses (300 mg, 150 mg and 75 mg) compared to placebo, FIG. 6
  estimated cervical ripening rate measured by Bishop score: higher
Women with spontaneous onset of labor, 300 mg (p=0.070), 150 mg (p 0.654), 75 mg (p 0.114) vs placebo, FIG. 2
  labor time up to vaginal delivery (partus): shorter labor time up to vaginal delivery (partus) compared to placebo
